We go through 7 compounds from patent US20210238192A1, “VASCULAR ADHESION PROTEIN-1 (VAP-1) MODULATORS AND THERAPEUTIC USES THEREOF” (Blade Therapeutics, Inc., priority 2018, published 2021).

Where a name gives a salt, the structure may show the parent alone.

One experiment has as its target T1, Human VAP-1 (Homo sapiens, UniProt Q16853).
T1 sequence (Q16853 1-763): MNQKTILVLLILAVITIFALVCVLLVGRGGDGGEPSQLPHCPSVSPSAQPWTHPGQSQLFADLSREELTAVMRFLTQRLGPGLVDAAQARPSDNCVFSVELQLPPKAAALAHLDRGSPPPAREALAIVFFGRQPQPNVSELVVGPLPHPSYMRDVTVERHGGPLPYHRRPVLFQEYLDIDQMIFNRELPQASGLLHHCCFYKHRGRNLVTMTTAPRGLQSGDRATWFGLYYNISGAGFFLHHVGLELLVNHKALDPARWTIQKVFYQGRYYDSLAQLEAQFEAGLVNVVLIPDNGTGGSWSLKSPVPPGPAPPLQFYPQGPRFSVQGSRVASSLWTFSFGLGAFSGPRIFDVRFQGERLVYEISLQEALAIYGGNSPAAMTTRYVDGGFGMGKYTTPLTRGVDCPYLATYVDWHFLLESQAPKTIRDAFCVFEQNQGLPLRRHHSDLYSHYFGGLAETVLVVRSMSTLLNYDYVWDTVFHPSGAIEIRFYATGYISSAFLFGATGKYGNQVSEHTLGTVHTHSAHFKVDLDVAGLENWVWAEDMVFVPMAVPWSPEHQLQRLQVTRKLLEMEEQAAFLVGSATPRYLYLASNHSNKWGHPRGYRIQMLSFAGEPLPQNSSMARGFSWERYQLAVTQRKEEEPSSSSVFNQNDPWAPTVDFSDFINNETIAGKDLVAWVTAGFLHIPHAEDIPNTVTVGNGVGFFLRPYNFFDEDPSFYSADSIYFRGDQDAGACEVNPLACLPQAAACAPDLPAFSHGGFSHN
Briefly: VAP-1 inhibition assay (Amplex Red continuous fluorescence assay). Format: biochemical. Conditions: 30 min pre-incubation at 37° C.; substrate benzylamine; read-out: Human VAP-1 IC50. The procedure: (§1) VAP-1, DAO, MAO-A, MAO-B, and HRP activity and inhibition thereof was assessed by means of a continuous fluorescence assay. The Amplex Red Hydrogen Peroxide/Peroxidase Assay (ThermoFisher) was optimized for detecting amine oxidase (AO) activity. In an enzyme-coupled reaction, the H2O2 generated by AO reacts 1:1 with Amplex Red reagent to produce fluorescent product resorufin.
(§2) Assays were typically setup in black 384-well plates using automated liquid handling as follows. VAP-1/MAO assay buffer contains […] sodium phosphate, pH 7.4; DAO assay buffer contains 50 mM HEPES, pH 7.5; HRP assay buffer contains 100 mM CHES, 1 mM MgCl2, 50 mM NaCl, 0.05% BSA, pH 9.0. Inhibitors were serially diluted in DMSO and used to setup 2× mixtures with AO in the aforementioned buffer. After 30 min pre-incubation at 37° C. (VAP-1, HRP) or room temp (DAO, MAO), the reaction was initiated by adding a 2× mix of Amplex Red, HRP (coupling enzyme), and substrate (benzylamine, histamine, tyramine, benzylamine, H2O2, for VAP-1, DAO, MAO-A, MAO-B, and HR, respectively) in the same buffer. Reaction progress curve data were typically collected for 5 min using excitation/emission wavelengths of 510 nm/565 nm on FLIPR-Tetra plate readers (Molecular Devices Inc). Reaction rates were calculated from progress curve slopes typically over 60-150 sec. Dose response curves (rate vs. log inhibitor concentration) were typically fit to a 4-parameter logistic function to extract IC50 values.
The IC50 is the point on the concentration scale where inhibition reaches its midpoint. For the compound `CCNC(=O)N(C)c1ccc(NC/C(=C/F)CN)cc1` [Compound 66, (E)-1-(4-((2-(aminomethyl)-3-fluoroalkyl)amino)phenyl)-3-ethyl-1-methylurea], the IC50 was below 3 µM.
As for `CC(C)(C)NC(=O)c1cccc2c1ccn2CC(=CF)CN` [Compound 69, 1-(2-(aminomethyl)-3-fluoroalkyl)-N-(tert-butyl)-1H-indole-4-carboxamide], the IC50 was below 3 µM.
On the same count and under the same terms, as for `NC/C(=C\F)CNc1ccccc1` [Compound 3, (E)-2-(fluoromethylene)-N^1-phenylpropane-1,3-diamine hydrochloride], the figure is below 3 µM.
In the case of `CCNC(=O)Nc1ccc(OC/C(=C/F)CN)cc1` [Compound 7, (E)-1-(4-((2-(aminomethyl)-3-fluoroalkyl)oxy)phenyl)-3-ethylurea hydrochloride], the IC50 is below 3 µM.
As for `CCNC(=O)Oc1ccc(OC/C(=C/F)CN)cc1` [Compound 55, (E)-4-((2-(aminomethyl)-3-fluoroalkyl)oxy)phenyl ethylcarbamate], the IC50 is below 3 µM.
On to `NC/C(=C\F)COc1ccc(-c2ncccn2)cc1` [Compound 37, (E)-3-fluoro-2-((4-(pyrimidin-2-yl)phenoxy)methyl)prop-2-en-1-amine hydrochloride], for which the IC50 is below 3 µM.
As for `NC/C(=C\F)Cn1ncc(-c2ccc(O)cc2)n1` [Compound 57, (E)-4-(2-(2-(aminomethyl)-3-fluoroalkyl)-2H-1,2,3-triazol-4-yl)phenol hydrochloride], the IC50 was below 3 µM.

The target of the next experiment is T2, Human DAO (Homo sapiens, UniProt P19801).
T2 sequence (P19801 20-751): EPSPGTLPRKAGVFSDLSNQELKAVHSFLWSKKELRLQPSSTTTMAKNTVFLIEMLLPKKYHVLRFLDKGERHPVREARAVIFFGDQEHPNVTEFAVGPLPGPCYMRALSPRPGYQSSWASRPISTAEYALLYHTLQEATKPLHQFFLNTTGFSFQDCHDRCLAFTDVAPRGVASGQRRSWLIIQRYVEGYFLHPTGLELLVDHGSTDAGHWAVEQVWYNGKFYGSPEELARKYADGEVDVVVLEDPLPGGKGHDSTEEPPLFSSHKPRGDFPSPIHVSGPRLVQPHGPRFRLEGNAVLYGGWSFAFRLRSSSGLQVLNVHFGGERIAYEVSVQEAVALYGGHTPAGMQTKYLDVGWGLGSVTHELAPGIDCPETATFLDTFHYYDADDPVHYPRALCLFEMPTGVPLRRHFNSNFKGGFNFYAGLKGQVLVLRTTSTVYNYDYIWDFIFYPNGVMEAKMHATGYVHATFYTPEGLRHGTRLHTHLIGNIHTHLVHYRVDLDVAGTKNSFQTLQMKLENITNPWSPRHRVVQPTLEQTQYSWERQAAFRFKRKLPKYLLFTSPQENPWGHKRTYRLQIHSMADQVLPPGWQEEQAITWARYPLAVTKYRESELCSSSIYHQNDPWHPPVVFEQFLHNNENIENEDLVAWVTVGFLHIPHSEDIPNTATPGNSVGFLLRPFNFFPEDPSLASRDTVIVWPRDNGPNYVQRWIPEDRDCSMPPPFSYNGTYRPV
As to the kind of experiment: DAO inhibition (Amplex Red continuous fluorescence assay). Type of experiment: biochemical. The settings on record: 30 min pre-incubation at room temp; substrate histamine; read-out: Human DAO IC50. Here is the method: as §1, §2
For the compound `CCNC(=O)N(C)c1ccc(NC/C(=C/F)CN)cc1` [Compound 66, (E)-1-(4-((2-(aminomethyl)-3-fluoroalkyl)amino)phenyl)-3-ethyl-1-methylurea], the IC50 is above 10 µM.
As to `CC(C)(C)NC(=O)c1cccc2c1ccn2CC(=CF)CN` [Compound 69, 1-(2-(aminomethyl)-3-fluoroalkyl)-N-(tert-butyl)-1H-indole-4-carboxamide], the IC50 was above 10 µM.
As to `NC/C(=C\F)CNc1ccccc1` [Compound 3, (E)-2-(fluoromethylene)-N^1-phenylpropane-1,3-diamine hydrochloride], the 50% inhibitory concentration (IC50) is above 10 µM.
Regarding `CCNC(=O)Nc1ccc(OC/C(=C/F)CN)cc1` [Compound 7, (E)-1-(4-((2-(aminomethyl)-3-fluoroalkyl)oxy)phenyl)-3-ethylurea hydrochloride], the IC50 fell in the range of 3 to 10 µM.
Take `CCNC(=O)Oc1ccc(OC/C(=C/F)CN)cc1` [Compound 55, (E)-4-((2-(aminomethyl)-3-fluoroalkyl)oxy)phenyl ethylcarbamate]: the IC50 was above 10 µM.
Consider `NC/C(=C\F)COc1ccc(-c2ncccn2)cc1` [Compound 37, (E)-3-fluoro-2-((4-(pyrimidin-2-yl)phenoxy)methyl)prop-2-en-1-amine hydrochloride], for which the IC50 is below 3 µM.
On the same count and under the same terms, as for `NC/C(=C\F)Cn1ncc(-c2ccc(O)cc2)n1` [Compound 57, (E)-4-(2-(2-(aminomethyl)-3-fluoroalkyl)-2H-1,2,3-triazol-4-yl)phenol hydrochloride], the figure is below 3 µM.

The next experiment addresses T3, Human MAO-A (Homo sapiens, UniProt P21397).
T3 sequence (P21397 1-527): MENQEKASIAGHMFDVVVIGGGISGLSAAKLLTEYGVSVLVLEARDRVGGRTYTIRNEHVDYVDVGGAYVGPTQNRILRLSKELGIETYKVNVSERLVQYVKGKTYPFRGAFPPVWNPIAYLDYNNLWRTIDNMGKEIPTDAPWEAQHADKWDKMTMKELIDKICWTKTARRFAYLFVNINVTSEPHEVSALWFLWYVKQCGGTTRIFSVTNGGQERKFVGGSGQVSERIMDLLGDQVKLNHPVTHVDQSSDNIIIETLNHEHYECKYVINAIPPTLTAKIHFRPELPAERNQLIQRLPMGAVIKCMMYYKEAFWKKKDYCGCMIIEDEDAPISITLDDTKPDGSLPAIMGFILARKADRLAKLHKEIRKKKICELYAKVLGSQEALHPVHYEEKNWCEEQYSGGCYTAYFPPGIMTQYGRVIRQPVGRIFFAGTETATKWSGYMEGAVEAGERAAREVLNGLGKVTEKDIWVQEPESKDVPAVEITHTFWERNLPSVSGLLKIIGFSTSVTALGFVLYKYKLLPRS
As to the kind of experiment: MAO-A inhibition (Amplex Red continuous fluorescence assay). Type of experiment: biochemical. The settings on record: 30 min pre-incubation at room temp; substrate tyramine; read-out: Human MAO-A IC50. Here is the method:
as §1, §2
Regarding `CCNC(=O)N(C)c1ccc(NC/C(=C/F)CN)cc1` [Compound 66, (E)-1-(4-((2-(aminomethyl)-3-fluoroalkyl)amino)phenyl)-3-ethyl-1-methylurea], the IC50 was above 10 µM.
On to `CC(C)(C)NC(=O)c1cccc2c1ccn2CC(=CF)CN` [Compound 69, 1-(2-(aminomethyl)-3-fluoroalkyl)-N-(tert-butyl)-1H-indole-4-carboxamide], for which the IC50 is above 10 µM.
Consider `NC/C(=C\F)CNc1ccccc1` [Compound 3, (E)-2-(fluoromethylene)-N^1-phenylpropane-1,3-diamine hydrochloride], for which the IC50 was above 10 µM.
As for `CCNC(=O)Nc1ccc(OC/C(=C/F)CN)cc1` [Compound 7, (E)-1-(4-((2-(aminomethyl)-3-fluoroalkyl)oxy)phenyl)-3-ethylurea hydrochloride], the IC50 was 3 to 10 µM.
Regarding `CCNC(=O)Oc1ccc(OC/C(=C/F)CN)cc1` [Compound 55, (E)-4-((2-(aminomethyl)-3-fluoroalkyl)oxy)phenyl ethylcarbamate], the IC50 is below 3 µM.
The same measure, in the same setting: for `NC/C(=C\F)COc1ccc(-c2ncccn2)cc1` [Compound 37, (E)-3-fluoro-2-((4-(pyrimidin-2-yl)phenoxy)methyl)prop-2-en-1-amine hydrochloride] the value was 3 to 10 µM; for `NC/C(=C\F)Cn1ncc(-c2ccc(O)cc2)n1` [Compound 57, (E)-4-(2-(2-(aminomethyl)-3-fluoroalkyl)-2H-1,2,3-triazol-4-yl)phenol hydrochloride], below 3 µM.

In another experiment the target is T4, Human MAO-B (Homo sapiens, UniProt P27338).
T4 sequence (P27338 1-520): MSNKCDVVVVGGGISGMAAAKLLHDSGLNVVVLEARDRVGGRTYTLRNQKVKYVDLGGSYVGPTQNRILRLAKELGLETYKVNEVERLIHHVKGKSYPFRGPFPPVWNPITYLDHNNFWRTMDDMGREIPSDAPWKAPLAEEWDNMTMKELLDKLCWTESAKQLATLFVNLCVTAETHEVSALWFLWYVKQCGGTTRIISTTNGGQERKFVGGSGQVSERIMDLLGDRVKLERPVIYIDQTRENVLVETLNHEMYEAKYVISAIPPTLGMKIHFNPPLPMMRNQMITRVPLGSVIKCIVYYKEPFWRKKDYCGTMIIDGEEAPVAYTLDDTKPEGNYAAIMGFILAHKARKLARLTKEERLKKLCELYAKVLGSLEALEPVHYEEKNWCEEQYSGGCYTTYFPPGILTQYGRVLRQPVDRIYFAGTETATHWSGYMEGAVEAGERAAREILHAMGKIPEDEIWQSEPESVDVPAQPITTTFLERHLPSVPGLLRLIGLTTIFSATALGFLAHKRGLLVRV
As to the kind of experiment: MAO-B inhibition (Amplex Red continuous fluorescence assay). Conditions: 30 min pre-incubation at room temp; substrate benzylamine; read-out: Human MAO-B IC50. Format: biochemical. Here is the method:
as §1, §2
With `CCNC(=O)N(C)c1ccc(NC/C(=C/F)CN)cc1` [Compound 66, (E)-1-(4-((2-(aminomethyl)-3-fluoroalkyl)amino)phenyl)-3-ethyl-1-methylurea], the IC50 was above 10 µM.
The same measure, in the same setting: as for `CC(C)(C)NC(=O)c1cccc2c1ccn2CC(=CF)CN` [Compound 69, 1-(2-(aminomethyl)-3-fluoroalkyl)-N-(tert-butyl)-1H-indole-4-carboxamide], the figure is below 3 µM.
On the same count and under the same terms, as for `NC/C(=C\F)CNc1ccccc1` [Compound 3, (E)-2-(fluoromethylene)-N^1-phenylpropane-1,3-diamine hydrochloride], the figure is below 3 µM; as for `CCNC(=O)Nc1ccc(OC/C(=C/F)CN)cc1` [Compound 7, (E)-1-(4-((2-(aminomethyl)-3-fluoroalkyl)oxy)phenyl)-3-ethylurea hydrochloride], below 3 µM.
On the same count and under the same terms, as for `CCNC(=O)Oc1ccc(OC/C(=C/F)CN)cc1` [Compound 55, (E)-4-((2-(aminomethyl)-3-fluoroalkyl)oxy)phenyl ethylcarbamate], the figure is below 3 µM.
Consider `NC/C(=C\F)COc1ccc(-c2ncccn2)cc1` [Compound 37, (E)-3-fluoro-2-((4-(pyrimidin-2-yl)phenoxy)methyl)prop-2-en-1-amine hydrochloride], for which the IC50 is below 3 µM.
Still for that read-out and setting: as for `NC/C(=C\F)Cn1ncc(-c2ccc(O)cc2)n1` [Compound 57, (E)-4-(2-(2-(aminomethyl)-3-fluoroalkyl)-2H-1,2,3-triazol-4-yl)phenol hydrochloride], the figure is 3 to 10 µM.
